The values that follow are results of earlier work, collected in patent US20110117194A1, “PHARMACEUTICAL FORMULATION CONTAINING ANGIOTENSIN-II RECEPTOR BLOCKER” (priority 2008, published 2011).

Structures are written as SMILES.

Turning to `CCCCc1nc(Cl)c(CO)n1Cc1ccc(-c2ccccc2-c2nn[nH]n2)cc1` [losartan], the “time to peak blood concentration” value (active losartan molecule released into blood) is no more than 1 h. Besides, the plasma clearance rate (in vivo) is given as 600 mL/min.
